Source: the NIST ThermoML archive (doi:10.1021/je101264r)

Assay: mn = molality of the nth substance listed, in mol/kg
Settings: 298.15 K, 101 kPa, Liquid, rubidium clock sound velocity meter

Nc1ncnc2c1ncn2[C@@H]1O[C@H](CO)[C@@H](O)[C@H]1O [β-adenosine] + O
Settings | speed of sound [m/s]
m1 = 0.01701 | 1497.8
m1 = 0.01736 | 1497.8
m1 = 0.01799 | 1497.8
m1 = 0.01851 | 1497.9
m1 = 0.01911 | 1497.9
m1 = 0.0195 | 1497.9
m1 = 0.02001 | 1498
m1 = 0.02054 | 1498
